Measured values: PMC6572064, “Discovery of 2-(1-(3-(4-Chloroxyphenyl)-3-oxo- propyl)pyrrolidine-3-yl)-1H-benzo[d]imidazole-4-carboxamide: A Potent Poly(ADP-ribose) Polymerase (PARP) Inhibitor for Treatment of Cancer” (Molecules, 2019)
Read-outs that look alike come from different tables or passages of the source.

Assays:
PARP-1 = molecular target: T1, PARP-1 (Homo sapiens, UniProt P09874); experiment: PARP-1 inhibition assay (PARP-1 Chemiluminescent Assay Kit, BPS Bioscience); type: biochemical; settings: 10 nM compound
T1 construct: purchased BPS Bioscience 80569
T1 sequence (P09874 whole entry): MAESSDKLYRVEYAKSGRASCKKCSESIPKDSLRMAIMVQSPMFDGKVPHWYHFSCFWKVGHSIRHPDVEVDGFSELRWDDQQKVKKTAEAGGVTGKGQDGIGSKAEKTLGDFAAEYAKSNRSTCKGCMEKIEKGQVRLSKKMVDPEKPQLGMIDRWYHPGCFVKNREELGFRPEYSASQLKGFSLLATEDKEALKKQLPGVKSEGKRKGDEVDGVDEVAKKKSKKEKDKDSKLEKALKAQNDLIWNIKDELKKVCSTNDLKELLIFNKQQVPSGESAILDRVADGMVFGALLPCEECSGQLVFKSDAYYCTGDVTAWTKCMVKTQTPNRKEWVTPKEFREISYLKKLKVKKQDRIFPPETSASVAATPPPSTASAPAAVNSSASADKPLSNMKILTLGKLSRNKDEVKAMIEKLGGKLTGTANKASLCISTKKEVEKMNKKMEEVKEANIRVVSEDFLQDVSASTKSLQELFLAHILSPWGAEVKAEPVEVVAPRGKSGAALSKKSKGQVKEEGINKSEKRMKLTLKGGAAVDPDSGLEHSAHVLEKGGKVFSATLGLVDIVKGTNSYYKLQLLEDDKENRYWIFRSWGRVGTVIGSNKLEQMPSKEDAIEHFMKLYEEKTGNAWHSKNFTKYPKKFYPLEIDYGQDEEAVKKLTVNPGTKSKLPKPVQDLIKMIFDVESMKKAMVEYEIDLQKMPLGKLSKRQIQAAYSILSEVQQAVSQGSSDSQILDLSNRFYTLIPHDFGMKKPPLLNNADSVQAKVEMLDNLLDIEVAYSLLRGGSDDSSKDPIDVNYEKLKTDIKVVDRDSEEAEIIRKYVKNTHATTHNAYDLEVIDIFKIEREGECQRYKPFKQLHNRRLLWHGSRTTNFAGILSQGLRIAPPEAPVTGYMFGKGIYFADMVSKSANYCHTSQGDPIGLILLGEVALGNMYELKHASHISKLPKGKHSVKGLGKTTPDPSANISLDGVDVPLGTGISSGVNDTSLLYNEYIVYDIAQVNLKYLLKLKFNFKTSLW
Experimental: (§1) The PARP-1 and PARP-2 inhibition assays were performed in outsourcing, by a CRO company, Shanghai Medicilon Inc. (Shanghai, China). […] Briefly, PARP-1 or PARP-2 biotinylated substrate was incubated with compounds or solvent control at varying concentrations and an assay buffer containing the PARP-1 or PARP-2 enzyme.

[1] = tested on: MDA-MB-436 (a BRCA-1-mutated breast cancer cell line); experiment: Cell proliferation assay, three-day, CellTiter-Glo, MDA-MB-436; type: cell-based; settings: for inhibition at 0.00508 µM / inhibition at 0.0152 µM / inhibition at 0.0457 µM / inhibition at 0.41 µM / inhibition at 1.23 µM / inhibition at 3.7 µM / inhibition at 11.11 µM / inhibition at 33.33 µM / inhibition at 100 µM / IC50: Homo sapiens; for inhibition at 0.00508 µM: MDA-MB-436, MDA-MB-436, Conc. 0.00508 uM; for inhibition at 0.0152 µM: MDA-MB-436, MDA-MB-436, Conc. 0.0152 uM; for inhibition at 0.0457 µM: MDA-MB-436, MDA-MB-436, Conc. 0.0457 uM; for inhibition at 0.41 µM: MDA-MB-436, MDA-MB-436, Conc. 0.41 uM; for inhibition at 1.23 µM: MDA-MB-436, MDA-MB-436, Conc. 1.23 uM; for inhibition at 3.7 µM: MDA-MB-436, MDA-MB-436, Conc. 3.70 uM; for inhibition at 11.11 µM: MDA-MB-436, MDA-MB-436, Conc. 11.11 uM; for inhibition at 33.33 µM: MDA-MB-436, MDA-MB-436, Conc. 33.33 uM; for inhibition at 100 µM: MDA-MB-436, MDA-MB-436, Conc. 100.00 uM
Outline: (§2)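 Cells seeded overnight in 384-well plates, then exposed to compounds (DMSO stock diluted in medium) for 72 h at 37 °C, 5% CO2. Viability read as CellTiter-Glo luminescence after 60 min at room temperature.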

[2] = tested on: CAPAN-1 (a BRCA-2-mutated pancreatic cancer cell line); experiment: Cell proliferation assay, three-day, CellTiter-Glo, CAPAN-1; type: cell-based; settings: for IC50 / inhibition at 0.0457 µM / inhibition at […] / inhibition at 0.41 µM / inhibition at 1.23 µM / inhibition at 3.7 µM / inhibition at 11.11 µM / inhibition at 33.33 µM / inhibition at 100 µM / inhibition at 0.00508 µM / inhibition at 0.0152 µM: Homo sapiens; for IC50: CAPAN-1, 72 h, CellTiter-Glo, read-out: CAPAN-1 IC50; for inhibition at 0.0457 µM: CAPAN-1, 0.0457 uM; for inhibition at […]: CAPAN-1, 0.14 uM; for inhibition at 0.41 µM: CAPAN-1, 0.41 uM; for inhibition at 1.23 µM: CAPAN-1, 1.23 uM; for inhibition at 3.7 µM: CAPAN-1, 3.70 uM; for inhibition at 11.11 µM: CAPAN-1, 11.11 uM; for inhibition at 33.33 µM: CAPAN-1, 33.33 uM; for inhibition at 100 µM: CAPAN-1, 100.00 uM
Outline: as §2

PARP-2 = molecular target: T2, PARP-2 (Homo sapiens, UniProt Q9UGN5); experiment: PARP-2 inhibition assay (PARP-2 Chemiluminescent Assay Kit, BPS Bioscience); type: biochemical; settings: 10 nM compound
T2 construct: purchased BPS Bioscience 80552
T2 sequence (Q9UGN5 whole entry): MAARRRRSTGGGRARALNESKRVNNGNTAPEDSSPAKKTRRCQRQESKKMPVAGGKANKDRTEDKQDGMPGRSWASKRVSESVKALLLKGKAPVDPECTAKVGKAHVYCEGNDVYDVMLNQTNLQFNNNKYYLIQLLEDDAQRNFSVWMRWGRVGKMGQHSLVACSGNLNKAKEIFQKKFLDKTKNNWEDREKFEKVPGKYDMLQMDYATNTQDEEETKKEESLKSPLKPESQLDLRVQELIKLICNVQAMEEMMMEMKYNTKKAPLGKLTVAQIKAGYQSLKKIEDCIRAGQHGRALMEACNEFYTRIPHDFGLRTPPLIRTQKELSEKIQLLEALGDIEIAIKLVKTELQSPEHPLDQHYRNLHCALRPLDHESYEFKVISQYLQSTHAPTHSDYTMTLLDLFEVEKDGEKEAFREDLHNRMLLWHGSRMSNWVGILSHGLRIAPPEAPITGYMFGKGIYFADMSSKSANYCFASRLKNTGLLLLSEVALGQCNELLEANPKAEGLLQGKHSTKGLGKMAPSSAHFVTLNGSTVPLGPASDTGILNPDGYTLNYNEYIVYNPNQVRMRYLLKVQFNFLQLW
Experimental: as §1

[3] = supplement sheet, read-out: 10 nM inhibition% PAPR-1
[4] = read-out: PARP-1 Inhibition % (10 nM)
[5] = MDA-MB-436, 72 h, CellTiter-Glo, read-out: MDA-MB-436 IC50
[6] = supplement sheet, read-out: 10 nM inhibition% PAPR-2
[7] = read-out: PARP-2 Inhibition % (10 nM)

`NC(=O)c1cccc2[nH]c(C3CCN(CCN4C(=O)c5ccccc5C4=O)C3)nc12` (stereo not shown) [Compound 5ck, 2-(1-(2-(1,3-Dioxoisoindolin-2-yl)ethyl)pyrrolidin-3-yl)-1H-benzo[d]imidazole-4-carboxamide] was tested, and the inhibition at 0.01 µM (PARP-1; [3]) was 6.02%, the inhibition at 0.01 µM (PARP-1; [4]) was 6% and the inhibition at 0.00508 µM ([1]; replicate 1, read-out: Inh % 1) was -0.108%. It also gave an inhibition at 0.00508 µM ([1]; replicate 2, read-out: Inh % 2) of -3.8%, an inhibition at 0.0152 µM ([1]; replicate 1, read-out: Inh % 1) of -3.1% and an inhibition at 0.0152 µM ([1]; replicate 2, read-out: Inh % 2) of -1.8%. For the same molecule, the inhibition at 0.0457 µM ([1]; replicate 1, read-out: Inh % 1) was -9.3%, the inhibition at 0.0457 µM ([1]; replicate 2, read-out: Inh % 2) was -11.9% and the inhibition at 0.41 µM ([1]; replicate 1, read-out: Inh % 1) was -11%. It also gave an inhibition at 0.41 µM ([1]; replicate 2, read-out: Inh % 2) of -21.7%, an inhibition at 1.23 µM ([1]; replicate 1, read-out: Inh % 1) of -18.8% and an inhibition at 1.23 µM ([1]; replicate 2, read-out: Inh % 2) of -14.6%. The inhibition at 3.7 µM ([1]; replicate 1, read-out: Inh % 1) was -15.1%, the inhibition at 3.7 µM ([1]; replicate 2, read-out: Inh % 2) was -12.2% and the inhibition at 11.11 µM ([1]; replicate 1, read-out: Inh % 1) was -14.1%. The inhibition at 11.11 µM ([1]; replicate 2, read-out: Inh % 2) was -10%, the inhibition at 33.33 µM ([1]; replicate 1, read-out: Inh % 1) was -6.4% and the inhibition at 33.33 µM ([1]; replicate 2, read-out: Inh % 2) was -12%. The inhibition at 100 µM ([1]; replicate 1, read-out: Inh % 1) was -8.9%, the inhibition at 100 µM ([1]; replicate 2, read-out: Inh % 2) was -13.6% and the IC50 [1, 5] was greater than 100 µM. It also gave an IC50 [2] greater than 100 µM, an inhibition at 0.0457 µM ([2]; replicate 1, read-out: Inh % 1) of -1.5% and an inhibition at 0.0457 µM ([2]; replicate 2, read-out: Inh % 2) of -9.2%. It also gave an inhibition at […] ([2]; replicate 1, read-out: Inh % 1) of 8.7%, an inhibition at […] ([2]; replicate 2, read-out: Inh % 2) of -3.2% and an inhibition at 0.41 µM ([2]; replicate 1, read-out: Inh % 1) of 9%. The inhibition at 0.41 µM ([2]; replicate 2, read-out: Inh % 2) was -5.8%, the inhibition at 1.23 µM ([2]; replicate 1, read-out: Inh % 1) was 3.9% and the inhibition at 1.23 µM ([2]; replicate 2, read-out: Inh % 2) was -9.8%. For the same molecule, the inhibition at 3.7 µM ([2]; replicate 1, read-out: Inh % 1) was 1.2%, the inhibition at 3.7 µM ([2]; replicate 2, read-out: Inh % 2) was 2.6% and the inhibition at 11.11 µM ([2]; replicate 1, read-out: Inh % 1) was -2.3%. For the same molecule, the inhibition at 11.11 µM ([2]; replicate 2, read-out: Inh % 2) was -4.3%, the inhibition at 33.33 µM ([2]; replicate 1, read-out: Inh % 1) was 6.8% and the inhibition at 33.33 µM ([2]; replicate 2, read-out: Inh % 2) was 4.4%. The inhibition at 100 µM ([2]; replicate 1, read-out: Inh % 1) was -2.5%, the inhibition at 100 µM ([2]; replicate 2, read-out: Inh % 2) was -5.6% and the inhibition at 0.00508 µM ([2]; CAPAN-1, Conc. 0.00508 uM, replicate 1, read-out: Inh % 1) was 2.6%. It also gave an inhibition at 0.00508 µM ([2]; CAPAN-1, Conc. 0.00508 uM, replicate 2, read-out: Inh % 2) of 0.639%, an inhibition at 0.0152 µM ([2]; CAPAN-1, Conc. 0.0152 uM, replicate 1, read-out: Inh % 1) of 6.1% and an inhibition at 0.0152 µM ([2]; CAPAN-1, Conc. 0.0152 uM, replicate 2, read-out: Inh % 2) of -0.5%. For the same molecule, the inhibition at 0.01 µM (PARP-2; [6]) was 37.1% and the inhibition at 0.01 µM (PARP-2; [7]) was 37.1%.
Work on `NC(=O)c1cccc2[nH]c(C3CCN(CCC(=O)Nc4ccccc4)C3)nc12` (stereo not shown) [Compound 5cb, 2-(1-(3-Oxo-3-(Phenylamino)propyl)pyrrolidin-3-yl)-1H-benzo[d]imidazole-4-carboxamide] yielded an inhibition at 0.01 µM (PARP-1; [3]) of 19.9%, an inhibition at 0.01 µM (PARP-1; [4]) of 19.9% and an inhibition at 0.00508 µM ([1]; replicate 1, read-out: Inh % 1) of 0.0167%. For the same molecule, the inhibition at 0.00508 µM ([1]; replicate 2, read-out: Inh % 2) was -6.8%, the inhibition at 0.0152 µM ([1]; replicate 1, read-out: Inh % 1) was -5.6% and the inhibition at 0.0152 µM ([1]; replicate 2, read-out: Inh % 2) was -10.5%. It also gave an inhibition at 0.0457 µM ([1]; replicate 1, read-out: Inh % 1) of -12.9%, an inhibition at 0.0457 µM ([1]; replicate 2, read-out: Inh % 2) of -11.3% and an inhibition at 0.41 µM ([1]; replicate 1, read-out: Inh % 1) of -10%. The inhibition at 0.41 µM ([1]; replicate 2, read-out: Inh % 2) was -14%, the inhibition at 1.23 µM ([1]; replicate 1, read-out: Inh % 1) was -9.6% and the inhibition at 1.23 µM ([1]; replicate 2, read-out: Inh % 2) was -14.7%. For the same molecule, the inhibition at 3.7 µM ([1]; replicate 1, read-out: Inh % 1) was -9.8%, the inhibition at 3.7 µM ([1]; replicate 2, read-out: Inh % 2) was -10.5% and the inhibition at 11.11 µM ([1]; replicate 1, read-out: Inh % 1) was -2.5%. For the same molecule, the inhibition at 11.11 µM ([1]; replicate 2, read-out: Inh % 2) was -1.6%, the inhibition at 33.33 µM ([1]; replicate 1, read-out: Inh % 1) was 9.7% and the inhibition at 33.33 µM ([1]; replicate 2, read-out: Inh % 2) was 9.8%. It also gave an inhibition at 100 µM ([1]; replicate 1, read-out: Inh % 1) of 58.3%, an inhibition at 100 µM ([1]; replicate 2, read-out: Inh % 2) of 40% and an IC50 [1, 5] of 90.4 µM. The IC50 ([1]; MDA-MB-436, 72 h, supplement Summary sheet, read-out: IC50) was 90.4 µM, the IC50 ([1]; MDA-MB-436, curve fit list, no unit in the cell, concentration in uM, read-out: IC50) was 90.4 µM and the LogIC50 ([1]; MDA-MB-436, curve fit on Log (uM) concentrations) was 1.956. For the same molecule, the Bottom ([1]; MDA-MB-436, curve fit parameter (Inh %)) was -10.26, the Top ([1]; MDA-MB-436, curve fit parameter (Inh %), '= 100.0' is a constrained value) was “= 100.0” and the LogIC50 ([2]; CAPAN-1, curve-fit output, Log (uM)) was 2.189. It also gave an IC50 [2] greater than 100 µM, an inhibition at 0.00508 µM ([2]; CAPAN-1, 0.00508 uM, replicate 1, read-out: Inh % 1) of -8% and an inhibition at 0.00508 µM ([2]; CAPAN-1, 0.00508 uM, replicate 2, read-out: Inh % 2) of 3.3%. It also gave an inhibition at 0.0152 µM ([2]; CAPAN-1, 0.0152 uM, replicate 1, read-out: Inh % 1) of 3.4%, an inhibition at 0.0152 µM ([2]; CAPAN-1, 0.0152 uM, replicate 2, read-out: Inh % 2) of 17% and an inhibition at 0.0457 µM ([2]; replicate 1, read-out: Inh % 1) of -4.1%. The inhibition at 0.0457 µM ([2]; replicate 2, read-out: Inh % 2) was 5.6%, the inhibition at […] ([2]; replicate 1, read-out: Inh % 1) was -2% and the inhibition at […] ([2]; replicate 2, read-out: Inh % 2) was 2.2%. The inhibition at 0.41 µM ([2]; replicate 1, read-out: Inh % 1) was 10.3%, the inhibition at 0.41 µM ([2]; replicate 2, read-out: Inh % 2) was 6.1% and the inhibition at 1.23 µM ([2]; replicate 1, read-out: Inh % 1) was 12.4%. For the same molecule, the inhibition at 1.23 µM ([2]; replicate 2, read-out: Inh % 2) was -0.64%, the inhibition at 3.7 µM ([2]; replicate 1, read-out: Inh % 1) was 11.2% and the inhibition at 3.7 µM ([2]; replicate 2, read-out: Inh % 2) was 9.9%. It also gave an inhibition at 11.11 µM ([2]; replicate 1, read-out: Inh % 1) of 5%, an inhibition at 11.11 µM ([2]; replicate 2, read-out: Inh % 2) of -4.1% and an inhibition at 33.33 µM ([2]; replicate 1, read-out: Inh % 1) of 3.6%. It also gave an inhibition at 33.33 µM ([2]; replicate 2, read-out: Inh % 2) of 21.6%, an inhibition at 100 µM ([2]; replicate 1, read-out: Inh % 1) of 39.1% and an inhibition at 100 µM ([2]; replicate 2, read-out: Inh % 2) of 32%. The inhibition at 0.01 µM (PARP-2; [6]) was 41.2% and the inhibition at 0.01 µM (PARP-2; [7]) was 41.2%.
